Assay results reported in patent publication US8030327B2 (MDS K.K., priority 2004, dated 2011).

How the values were obtained:
HeLaS3 cells = test: PLK1 inhibitory activity at cellular level: M phase arrest by phospho-histone H3 (Ser10) immunofluorescence; type: cell-based, human; details: HeLaS3 cells synchronized at G1/S; 12 hours after addition; concentration inducing 50% of maximum ratio of cells arrested at M phase
Protocol: For the measurement of the PLK 1 inhibitory activity of the compound at the cellular level, human uterine cervix cell lines HeLaS3 cells were used. The HeLaS3 cell was obtained from American Type Culture Collection (ATTC), and cultured in a CO2-incubator of saturated steam, in the presence of 5% CO2, by using Dulbecco's Modified Eagle's Medium containing 10% fetal calf serum at 37° C.
It has been reported that PLK 1 plays an important role in various stages of mitotic phase (M-phase) in mammalian cells (Nature Review Molecular Cell Biology (Nat. Rev. Mol. Cell. Biol.), Vol. 5, 429, (2004)). In fact, when the mammalian cells are treated with PLK 1 siRNA to control the expression level, the cell cycle progression is inhibited and thus the cell is arrested at M phase. In addition, when examining the phosphorylation level of serine (10th residue on histone H3) which is thought to be required for a chromosome condensation in M phase, is examined, it is observed that the level is enhanced to a high level. Thus, after treating the cell with the compound according to the invention, the phosphorylation level of histone H3 was examined by the indirect fluorescent antibody technique, the cells arrested at M phase were identified by using the level thereof as an indicator to analyze the ratio of cells arrested at M phase, and then EC50 value of each compound was calculated to evaluate the PLK 1 inhibitory activity at a cellular level.
First, HeLaS3 cells synchronized at the G1/S phase by the double-thymidine method were seeded into a lysine-treated 96-well plate (Falcon Corp.) in the ratio of 8,000 per one well, and allowed to stand still in the above-mentioned CO2 incubator. 4 hours after the seeding, the compound according to the invention, which is diluted in series, was added into each well of the plate, and further allowed to stand still in the CO2 incubator. 12 hours after the addition of the compound according to the invention, the culture medium containing the compound according to the invention in each well of the plate was removed, and then 100 μL of ice-cold 100% methanol (Wako Pure Chemical Industries, Ltd.) was added, to carry out cell fixation for 10 minutes and treatment for increasing the membrane permeability. Subsequently, to the wells in which the methanol was removed, 50 μL of 1% BSA/PBS was added, and then blocking was carried out for 30 minutes. Thereafter, for the primary antibody reaction, 50 μL of 1% BSA/PBS containing a 2.5 mg/mL Anti-phospho Histone H3 (Ser10) antibody (Upstate Corp.) was added, and the plate was left over at room temperature for 90 minutes. After terminating the reaction, each well was once washed with PBS, and for the second antibody reaction, 50 μL of 1% BSA/PBS containing 1.5 mg/mL Cy5-labelled anti-rabbit IgG (H+ L) antibody (Chemicon) and 10 ug/mL DAPI (Sigma) which is a nucleus staining regent, was added to the wells, and further left over at room temperature for 90 minutes. After terminating the reaction, the reaction solution in wells was removed and replaced with 100 μL of PBS, and then fluorescence images were captured by using IN Cell Analyzer 1000 (manufactured by GE Amersham) to analyze the ratio of the cells arrested at M phase (Mitotic index) in each view.

full-length human PLK1 = molecular target: T1, full-length human PLK1 (Homo sapiens, UniProt P53350); test: Measurement of PLK1 activity (33P-ATP, phosphocellulose filter); type: biochemical; details: 50 μM substrate peptide, 50 μM ATP, 25° C., 20 minutes, read-out: PLK1 inhibitory activity
T1 construct: a baculovirus expressing full-length human PLK1; GST (glutathione S-transferase) (N, cleaved yes); made in house; host or cells: Spodoptera frugiperda Sf9 insect cells (baculovirus)
T1 sequence (P53350 whole entry): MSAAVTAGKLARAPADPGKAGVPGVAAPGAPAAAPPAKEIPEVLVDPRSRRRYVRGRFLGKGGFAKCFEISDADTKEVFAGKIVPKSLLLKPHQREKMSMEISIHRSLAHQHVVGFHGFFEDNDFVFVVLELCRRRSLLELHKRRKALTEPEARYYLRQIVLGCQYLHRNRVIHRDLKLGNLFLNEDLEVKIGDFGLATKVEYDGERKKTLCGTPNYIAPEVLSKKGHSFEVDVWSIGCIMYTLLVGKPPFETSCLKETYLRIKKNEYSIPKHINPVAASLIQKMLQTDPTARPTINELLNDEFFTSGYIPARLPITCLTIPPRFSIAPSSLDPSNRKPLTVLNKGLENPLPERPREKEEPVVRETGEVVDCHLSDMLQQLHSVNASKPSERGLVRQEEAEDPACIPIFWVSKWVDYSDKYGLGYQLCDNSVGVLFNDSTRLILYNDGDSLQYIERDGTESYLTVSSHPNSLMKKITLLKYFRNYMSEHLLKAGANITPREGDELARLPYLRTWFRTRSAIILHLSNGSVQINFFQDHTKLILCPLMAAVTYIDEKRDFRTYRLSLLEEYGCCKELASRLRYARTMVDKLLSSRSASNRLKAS
Protocol: First, a baculovirus expressing full-length human PLK1 of which the N terminus is fused with GST (glutathione S-transferase) was prepared, and then the PLK1 transfected into a Spodoptera frugiperda(Sf)9 insect cell was highly expressed as a GST-fused protein. The cells were recovered and suspended in a lysis buffer (50 mM tris-hydrochloric acid buffer (pH 7.4)/150 mM sodium chloride/1 mM EDTA (ethylenediamine tetraacetic acid)/1 mM dithiothreitol/0.1% polyoxyethylene sorbitan monolaurate) to break open cells with a sonicator, and supernatant was recovered after a centrifugation. The supernatant was reacted on glutathione sepharose beads, and then the beads were washed with a lysis buffer. Thereafter, the beads were reacted in a lysis buffer containing Precision Protease to recover supernatant. […]
The reaction was carried out in accordance with the method of Toyoshima-Morimoto et al. [Nature, Vol. 410, 215-220, (2001)]. […] After washing the phosphocellulose filter with 75 mM phosphate buffer, the filter was dried to measure the radioactivity with a liquid scintillation counter. […]

[1] = molecular target: T2, PLK1-T210D (human active type PLK1) (Homo sapiens, UniProt P53350, T210D); test: Measurement of PLK1-T210D activity (33P-ATP, phosphocellulose filter); type: biochemical; details: 50 μM substrate peptide, 50 μM ATP, 25° C., 20 minutes, read-out: PLK1-T210D inhibitory activity
T2 construct: a baculovirus expressing full-length human PLK1; GST (glutathione S-transferase) (N); made in house; host or cells: insect cells (baculovirus)
T2 sequence (P53350 whole entry T210D): as the sequence (P53350 whole entry) above, with T210D counted along it
Protocol: For the measurement of the PLK1 and PLK1-T210D activity, a synthetic peptide (aspartic acid-glutamic acid leucine-methionine-glutamic acid-alanine-serine-phenylalanine-alanine-aspartic acid-glutamine-aspartic acid-alanine-lysine) in which the serine surrounding sequence of the amino acid sequence No. 198 of CDC25C having been reported as the site for PLK1 substrate [EMBO Report, Vol. 3, 341 (2002)] is altered, was used as a substrate.
The volume of the reaction solution was 21.1 μL and the composition of the reaction buffer was 20 mM tris-hydrochloric acid buffer (pH 7.4)/10 mM magnesium chloride/0.5 mM dithiothreitol/1 mM EGTA (ethylene glycol-bis(beta-aminoethylether)-N,N,N′,N′,-tetraacetic acid). Thereto, purified PLK 1, 50 μM of the substrate peptide, 50 μM of non-labeled adenosine triphosphate (ATP), and 1 μCi of [γ-^33P]-labeled ATP (2000 to 4000 Ci/mmole) were added to carry out the reaction at 25° C. for 20 minutes. Then, 10 μL of 350 mM phosphate buffer was added to the reaction system to terminate the reaction. The resultant solution was spotted onto a multi-screen phosphocellulose filter on a 96-well plate. After washing the phosphocellulose filter with 75 mM phosphate buffer, the filter was dried to measure the radioactivity with a liquid scintillation counter. […]

Row | EC50 (HeLaS3 cells) [nM] | IC50 (full-length human PLK1) [nM] | IC50 [1] [nM] | SMILES
1 | 70 | 12 | 12 | CC(Oc1cc(-c2cnc3ccccn23)sc1C(N)=O)c1ccccc1[N+](=O)[O-] (centres unmarked) [Example 44, 5-imidazo[1,2-a]pyridin-3-yl-3-[1-(2-nitrophenyl)ethoxy]thiophene-2-carboxyamide]
2 | 360 |  |  | C[C@@H](Oc1cc(-c2cnc3ccc(OCCO)cn23)sc1C(N)=O)c1ccccc1Cl [Example 66, 3-[(1R)-1-(2-chlorophenyl)ethoxy]-5-[6-(2-hydroxyethoxy)imidazo[1,2-a]pyridin-3-yl]thiophene-2-carboxyamide]
3 | 210 | 28 | 22 | C[C@@H](Oc1cc(-c2cnc3ccc(CN4CCNCC4)cn23)sc1C(N)=O)c1ccccc1Cl [Example 119, 3-[(1R)-1-(2-chlorophenyl)ethoxy]-5-[6-(piperazin-1-ylmethyl)imidazo[1,2-a]pyridin-3-yl]thiophene-2-carboxyamide]

Second part, the compound before the results:

Row | SMILES | EC50 (HeLaS3 cells) [nM] | IC50 (full-length human PLK1) [nM] | IC50 [1] [nM]
4 | CC(Oc1nc(-c2cnc3ccccn23)sc1C(N)=O)c1ccccc1Cl (centres unmarked) [Example 161] | 490 |  | 
5 | CC(Oc1cc(-c2cnc3cnccn23)sc1C(N)=O)c1ccccc1Cl (centres unmarked) [Example 163] | 660 |  | 
6 | C[C@@H](Oc1cc(-c2cnc3ccc(C#N)cn23)sc1C(N)=O)c1ccc(CNC(C)(C)CO)cc1OC(F)F [Example 188, 5-(6-cyanoimidazo[1,2-a]pyridin-3-yl)-3-[(1R)-1-(2-(difluoromethoxy)-4-{[(2-hydroxy-1,1-dimethylethyl)amino]methyl}phenyl)ethoxy]thiophene-2-carboxyamide] | 390 |  | 
7 | C[C@@H](Oc1nc(-c2cnc3cnc(CS(C)(=O)=O)cn23)sc1C(N)=O)c1ccc(CN(C)C)cc1Cl [Example 236] | 100 |  | 
